Results: patent publication US12037344B2, “NLRP3 modulators” (INNATE TUMOR IMMUNITY, INC., priority 2018, dated 2024)
pEC50: −log10 of the molar value. Structures can show the parent of a compound that is named as a salt. Where two headings read alike, the source gives them in different places.

Tests used:
TLR7 = molecular target: T1, TLR7 (Homo sapiens, UniProt Q9NYK1); assay: In vitro human TLR7 binding reporter assay (HEK-Blue, NF-kB/AP1-inducible SEAP); format: cell-based; details: read-out: TLR7 Agonist EC50
T1 construct: human HEK-Blue cells co-expressing a TLR7 or TLR8 gene
T1 sequence (Q9NYK1 27-1049): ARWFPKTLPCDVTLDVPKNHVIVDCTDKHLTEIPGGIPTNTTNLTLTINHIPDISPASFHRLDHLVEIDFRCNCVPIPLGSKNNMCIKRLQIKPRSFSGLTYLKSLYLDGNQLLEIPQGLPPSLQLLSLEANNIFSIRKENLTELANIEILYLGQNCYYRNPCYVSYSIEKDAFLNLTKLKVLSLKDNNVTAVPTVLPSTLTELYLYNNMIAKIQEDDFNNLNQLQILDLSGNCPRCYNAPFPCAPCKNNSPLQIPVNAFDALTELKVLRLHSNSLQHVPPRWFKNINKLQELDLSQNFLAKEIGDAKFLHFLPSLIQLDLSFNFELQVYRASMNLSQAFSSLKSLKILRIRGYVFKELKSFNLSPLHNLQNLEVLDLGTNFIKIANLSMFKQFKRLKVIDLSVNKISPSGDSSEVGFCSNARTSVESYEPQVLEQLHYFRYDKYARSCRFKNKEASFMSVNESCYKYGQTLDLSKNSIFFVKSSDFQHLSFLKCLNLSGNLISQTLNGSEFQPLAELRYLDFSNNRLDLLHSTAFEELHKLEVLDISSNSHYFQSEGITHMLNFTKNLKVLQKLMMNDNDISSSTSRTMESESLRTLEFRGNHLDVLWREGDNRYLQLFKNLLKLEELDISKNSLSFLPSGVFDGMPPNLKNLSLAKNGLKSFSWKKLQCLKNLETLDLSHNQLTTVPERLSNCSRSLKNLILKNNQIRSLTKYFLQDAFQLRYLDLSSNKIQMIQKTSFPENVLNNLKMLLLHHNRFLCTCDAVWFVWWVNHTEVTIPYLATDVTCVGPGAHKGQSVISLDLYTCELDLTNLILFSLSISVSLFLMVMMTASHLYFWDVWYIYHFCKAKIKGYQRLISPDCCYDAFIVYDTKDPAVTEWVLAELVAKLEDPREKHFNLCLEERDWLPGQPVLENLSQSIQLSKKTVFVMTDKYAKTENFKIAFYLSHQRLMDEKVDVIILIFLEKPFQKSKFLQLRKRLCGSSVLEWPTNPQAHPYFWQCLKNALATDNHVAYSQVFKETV
Method in brief: (§1)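 EC50s come from NF-kB/AP1-driven SEAP secretion in HEK-Blue cells expressing TLR7 or TLR8, measured with Quanti-Blue after an 18 h compound incubation. Maximal response is defined by a 50 μM reference standard.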

TLR8 = molecular target: T2, TLR8 (Homo sapiens, UniProt Q9NR97); assay: In vitro human TLR8 binding reporter assay (HEK-Blue, NF-kB/AP1-inducible SEAP); format: cell-based; details: read-out: TLR8 Agonist EC50
T2 construct: human HEK-Blue cells co-expressing a TLR7 or TLR8 gene
T2 sequence (Q9NR97 27-1041): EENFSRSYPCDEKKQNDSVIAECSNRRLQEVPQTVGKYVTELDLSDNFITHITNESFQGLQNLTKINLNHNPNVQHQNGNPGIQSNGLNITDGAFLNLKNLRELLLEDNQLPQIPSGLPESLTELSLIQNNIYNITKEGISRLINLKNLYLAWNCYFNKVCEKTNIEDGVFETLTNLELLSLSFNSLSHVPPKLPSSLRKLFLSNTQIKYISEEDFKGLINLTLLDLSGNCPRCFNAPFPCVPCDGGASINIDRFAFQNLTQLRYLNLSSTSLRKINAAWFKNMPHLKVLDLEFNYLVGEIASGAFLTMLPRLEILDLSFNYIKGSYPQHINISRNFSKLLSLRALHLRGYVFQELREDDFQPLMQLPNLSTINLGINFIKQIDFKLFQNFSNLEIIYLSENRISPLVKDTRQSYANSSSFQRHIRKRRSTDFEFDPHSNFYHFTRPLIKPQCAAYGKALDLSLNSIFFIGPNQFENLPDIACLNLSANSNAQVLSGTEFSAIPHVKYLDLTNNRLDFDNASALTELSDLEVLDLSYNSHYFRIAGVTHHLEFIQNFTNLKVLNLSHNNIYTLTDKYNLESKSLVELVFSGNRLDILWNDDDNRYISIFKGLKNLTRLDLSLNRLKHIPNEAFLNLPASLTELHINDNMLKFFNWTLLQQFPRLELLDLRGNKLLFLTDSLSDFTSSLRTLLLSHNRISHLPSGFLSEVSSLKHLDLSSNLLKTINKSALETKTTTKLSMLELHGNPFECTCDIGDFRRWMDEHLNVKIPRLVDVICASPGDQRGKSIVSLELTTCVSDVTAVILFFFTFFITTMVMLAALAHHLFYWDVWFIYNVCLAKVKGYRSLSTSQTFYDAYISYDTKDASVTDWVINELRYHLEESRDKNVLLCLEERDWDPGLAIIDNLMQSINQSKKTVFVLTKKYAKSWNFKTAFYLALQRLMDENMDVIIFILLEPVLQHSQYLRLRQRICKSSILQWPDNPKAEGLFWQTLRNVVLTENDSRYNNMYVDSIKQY
Method in brief: as §1

THP-1 cells = assay: Measurement of IL-1β production, hTRF protocol (second alternative procedure), THP-1 cells; format: cell-based, human; details: read-out: NLRP3 hILIB EC50
Method in brief: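 Compounds, dilution series starting at a final 10 μM, were incubated 2 hours at 37° C with PMA-differentiated THP-1 cells (50 ng/ml overnight; 50,000 cells/well, 2% FBS RPMI). Released IL-1β quantified in supernatant by hTRF kit with 1:40 antibody dilution, 4° C overnight, 665/615 nm ratio.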

[1] = Homo sapiens, THP-1, IL-1β production, human
[2] = Homo sapiens, THP-1, IL-1β production, human cells

SMILES	pEC50 (TLR7; activity range class)	pEC50 (TLR8; activity range class)	pEC50 (THP-1 cells; IL-1β production, human)	pEC50 (THP-1 cells; [1])	pEC50 (TLR7; activity range)	pEC50 (TLR8; activity range)	pEC50 (THP-1 cells; [2])
CN1CCOC(C(=O)NCCn2cc3c(n2)c(N)nc2cc(-c4cc[nH]n4)ccc23)C1 (single isomer, unassigned) [Example 180]	< 4.00	< 4.00	4.44	–	–	–	–
Nc1nc2cc(-c3cc[nH]n3)ccc2c2cn(CCNC(=O)C3CCCCO3)nc12 (stereo not drawn) [Example 93]	< 4.00	< 4.00	–	6.20	–	–	–
CCn1cc2c(n1)c(N)nc1cc(-c3ccn[nH]3)ccc12 [Example 188]	< 4.00	< 4.00	–	6.68	–	–	–
COCC(C)n1cc2c(N)nc3cc(-c4cc[nH]n4)ccc3c2n1 (single isomer, unassigned) [Example 338]	< 4.00	< 4.00	6.41	–	–	–	–
CN(C)C(=O)Cn1cc2c(N)nc3cc(-c4cc[nH]n4)ccc3c2n1 [Example 458, 2-(4-amino-7-(1H-pyrazol-5-yl)-2H-pyrazolo[4,3-c]quinolin-2-yl)-N,N-dimethylacetamide.TFA]	–	–	–	–	< 4.00	< 4.00	6.80
CCNCc1cc2c(N)nc3cc(-c4cc[nH]n4)ccc3c2[nH]1 [Example 420]	–	–	–	–	< 4.00	< 4.00	6.29
Nc1nc2cc(-c3cc[nH]n3)ccc2c2nn(C[C@H]3CCCO3)cc12 [Example 329]	< 4.00	< 4.00	–	6.51	–	–	–
Nc1nc2cc(-c3cc[nH]n3)ccc2c2cn(CCNC(=O)c3cnccn3)nc12 [Example 83]	< 4.00	< 4.00	–	6.44	–	–	–
CC(C)(Cn1cc2c(N)nc3cc(-c4ccn[nH]4)ccc3c2n1)C(=O)NCC1CCOCC1 [Example 602]	–	–	–	–	< 4.00	< 4.00	4.67
Nc1nc2cc(-c3cc[nH]n3)ccc2c2[nH]c(CCNC(=O)c3ccc(F)cn3)cc12 [Example 417]	–	–	–	–	< 4.00	< 4.00	6.80
Nc1nc2cc(-n3cccn3)ccc2c2c1cnn2CCO [Example 250, 2-(4-amino-7-(1H-pyrazol-1-yl)-1H-pyrazolo[4,3-c]quinolin-1-yl)ethan-1-ol]	< 4.00	< 4.00	–	5.71	–	–	–
COC(=O)c1cccc(C(=O)NCCn2cc3c(n2)c(N)nc2cc(-c4cc[nH]n4)ccc23)n1 [Example 63]	< 4.00	< 4.00	–	5.79	–	–	–
CC(C)(Cn1cc2c(N)nc3cc(-c4ccn[nH]4)ccc3c2n1)C(=O)NCC(F)F [Example 596]	–	–	–	–	< 4.00	< 4.00	5.00
COCCCn1cc2c(N)nc3cc(-c4cc[nH]n4)ccc3c2n1 [Example 303]	< 4.00	< 4.00	–	6.68	–	–	–
C[C@H](CO)Cn1ncc2c(N)nc3cc(-c4cc[nH]n4)ccc3c21 [Example 232]	< 4.00	< 4.00	–	5.73	–	–	–
Nc1nc2cc(-c3cc[nH]n3)ccc2c2[nH]c(CN3[C@@H]4CC[C@H]3COC4)cc12 [Example 474]	–	–	–	–	< 4.00	< 4.00	6.35
Nc1nc2cc(-c3cc[nH]n3)ccc2c2nn(C3CCCC3O)cc12 (single isomer, unassigned) [Example 316]	< 4.00	< 4.00	6.05	–	–	–	–
CC(CC(=O)NCC1CCOCC1)n1cc2c(N)nc3cc(-c4cc[nH]n4)ccc3c2n1 (stereo not drawn) [Example 624]	–	–	–	–	< 4.00	< 4.00	4.70
Nc1nc2cc(-c3cc[nH]n3)ccc2c2nn(C[C@@H](O)CO)cc12 [Example 365]	< 4.00	< 4.00	–	5.73	–	–	–
COc1ccc(C(=O)NCCn2cc3c(n2)c(N)nc2cc(-c4cc[nH]n4)ccc23)nc1 [Example 59]	< 4.00	< 4.00	–	6.33	–	–	–
CN(C)C(=O)C1(Cn2cc3c(N)nc4cc(-c5ccn[nH]5)ccc4c3n2)CC1 [Example 600]	–	–	–	–	< 4.00	< 4.00	5.40
Nc1nc2cc(-c3ccn[nH]3)ccc2c2cn(CC(F)F)nc12 [Example 192]	< 4.00	< 4.00	–	7.05	–	–	–
Nc1nc2cc(-c3cc[nH]n3)ccc2c2c1cnn2CCCN1CCOCC1 [Example 214]	< 4.00	< 4.00	–	5.34	–	–	–
NC(=O)CCn1cc2c(n1)c(N)nc1cc(-c3ccn[nH]3)ccc12 [Example 189]	< 4.00	< 4.00	–	6.23	–	–	–
Nc1nc2cc(-c3cc[nH]n3)ccc2c2cn(CCN3Cc4ccccc4C3=O)nc12 [Example 102, 2-{2-[4-amino-7-(1H-pyrazol-3-yl)-2H-pyrazolo[3,4-c]quinolin-2-yl]ethyl}-2,3-dihydro-1H-isoindol-1-one]	4.00 to 4.70	4.00 to 4.70	–	6.39	–	–	–
Nc1nc2cc(-c3cc[nH]n3)ccc2c2cn(CCOC(F)F)nc12 [Example 397]	–	–	–	–	4.70 to 6.00	< 4.00	6.47
CC(C(=O)N1CCOCC1)n1cc2c(N)nc3cc(-c4ccn[nH]4)ccc3c2n1 (stereo not drawn) [Example 570]	–	–	–	–	< 4.00	< 4.00	5.29
